Data set [1] concerns Sk-Mel-28 cells. As to the kind of experiment: Cell proliferation assay Method A (ATPlite), Sk-Mel-28. It is filed as cell-based. Particulars: Homo sapiens, 72 hours, read-out: antiproliferative activity IC50, Sk-Mel-28. As for the experimental part: (§1) Cancer cell lines were plated at 5,000 to 10,000 per well in 96-well flat bottomed plates with various concentration of compounds. The cells were incubated with compounds for 72 hours in the presence of 0.5% of fetal bovine serum. Growth inhibition was accessed by adenosine triphosphate (ATP) content assay using Perkin Elmer ATPlite kit. ATPlite is an ATP monitoring system based on firefly luciferase. Briefly, 25 μl of mammalian cell lysis solution was added to 50 μl of phenol red-free culture medium per well to lyse the cells and stabilize the ATP. 25 μl of substrate solution was then added to the well and subsequently the luminescence was measured.
On the technique in general: ATP-based viability assays read luminescence as a measure of living cells.

The subject of data set [2] is H1975 cells. The data set is described as follows: Cell proliferation assay Method B, H1975. It is filed as cell-based. Particulars: Homo sapiens, NCI-H1975; NSCLC; H1975; 72 hours, 0.5% fetal bovine serum, CellTiter-Glo; read-out: antiproliferative activity IC50, H1975. The procedure: (§2) Cancer cell lines were plated at 5,000 to 10,000 per well in 96-well flat bottomed plates with various concentration of compounds. The cells were incubated with compounds for 72 hours in the presence of 0.5% of fetal bovine serum. Growth inhibition was accessed by adenosine triphosphate (ATP) content assay using Promega CellTiter-Glo kit. Promega CellTiter-Glo kit is an ATP monitoring system based on firefly luciferase. Briefly, 16 μl of mammalian cell lysis and substrate solution was added to 84 μl of culture medium per well to lyse the cells and stabilize the ATP. The mixture was shaken and incubated for 30 minutes and subsequently the luminescence was measured.

Data set [3] has as its system HCC1937 cells. The data set is described as follows: Cell proliferation assay Method B, HCC1937. It is filed as cell-based. Particulars: Homo sapiens, 72 hours, 0.5% fetal bovine serum, CellTiter-Glo, read-out: antiproliferative activity IC50, HCC1937. As for the experimental part:
as §2

Data set [4] relates to HDACs (HeLa cell nuclear extracts). The data set is described as follows: HDAC enzymatic activity, Biomol Color de Lys system. It is filed as biochemical. A digest of the protocol:
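IC50 from sigmoidal dose-response fits of fluorescence (Ex 350–380, Em 440–460 nm). Compounds in DMSO dilution series incubated 1 h at 25 °C with HeLa nuclear extract HDACs and colorimetric substrate, pH 8.0 Tris/Cl buffer with NaCl, KCl, MgCl2, before developer termination.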

Data set [5] deals with BT-474 cells. The data set is described as follows: Cell proliferation assay Method A (ATPlite), BT-474. The settings on record: Homo sapiens, 72 hours, read-out: antiproliferative activity IC50, BT-474. Type of data set: cell-based. As for the experimental part:
as §1

Data set [6] relates to HCT-118 cells. As to the kind of experiment: Cell proliferation assay Method A (ATPlite), HCT-118. The settings on record: 72 hours, read-out: antiproliferative activity IC50, HCT-118. Type of data set: cell-based. As for the experimental part: as §1
Data set [7] has as its system Sk-Mel-28 cells. As to the kind of experiment: Cell proliferation assay Method B, Sk-Mel-28. Type of data set: cell-based. The settings on record: Homo sapiens, Melanoma, 72 hours, read-out: antiproliferative activity IC50, Sk-Mel-28. As for the experimental part:
as §2

Data set [8] concerns H1993 cells. The data set is described as follows: Cell proliferation assay Method A (ATPlite), H1993. It is filed as cell-based. The settings on record: Homo sapiens, NCI-H1993, 72 hours, read-out: antiproliferative activity IC50, H1993. The procedure: as §1
Data set [9] has as its system BT474 cells. The data set is described as follows: Cell proliferation assay Method B, BT474. It is filed as cell-based. The settings on record: Homo sapiens, BT-474, 72 hours, read-out: antiproliferative activity IC50, BT474. The procedure: as §2
Data set [10] deals with H1993 cells. As to the kind of experiment: Cell proliferation assay Method B, H1993. Type of data set: cell-based. The settings on record: Homo sapiens, NCI-H1993; NSCLC; H1993; 72 hours, 0.5% fetal bovine serum, CellTiter-Glo; read-out: antiproliferative activity IC50, H1993. The procedure:
as §2

The subject of data set [11] is U87MG cells. The data set is described as follows: Cell proliferation assay Method B, U87MG. Type of data set: cell-based. The settings on record: Homo sapiens, U-87 MG; Glioblastoma; U87MG; 72 hours, 0.5% fetal bovine serum, CellTiter-Glo; read-out: antiproliferative activity IC50, U87MG. As for the experimental part: as §2
The subject of data set [12] is MDA-MB-468 cells. As to the kind of experiment: Cell proliferation assay Method B, MDA-MB-468. It is filed as cell-based. Particulars: Homo sapiens, 72 hours, 0.5% fetal bovine serum, CellTiter-Glo, read-out: antiproliferative activity IC50, MDA-MB-468. As for the experimental part:
as §2

In data set [13] the test system is RPMI-8226 cells. As to the kind of experiment: Cell proliferation assay Method B, RPMI-8226. It is filed as cell-based. The settings on record: Homo sapiens, Multiple Myeloma, 72 hours, 0.5% fetal bovine serum, CellTiter-Glo, read-out: antiproliferative activity IC50, RPMI-8226. As for the experimental part:
as §2

The subject of data set [14] is A375 cells. As to the kind of experiment: Cell proliferation assay Method B, A375. It is filed as cell-based. Particulars: Homo sapiens, A-375; Melanoma; Method B; 72 hours; read-out: antiproliferative activity IC50, A375. As for the experimental part:
as §2

The mark [15] stands for this setting: Sk-Mel-28, 0.5% fetal bovine serum, CellTiter-Glo.
Where [16] appears, read: BT474, 0.5% fetal bovine serum, CellTiter-Glo.

The IC50 is the concentration that inhibits the measured activity by half. Usually melting point stands for the temperature of the solid-liquid transition.

Where two headings read alike, the source gives them in different places. A value given as a limit tells only on which side of the number the result lay.

Take `CN(Cc1cc2nc(-c3cccc4[nH]ncc34)nc(N3CCOCC3)c2s1)c1ncc(C(=O)NO)cn1` [Compound 54, 2-(((2-(1H-indazol-4-yl)-4-morpholinothieno[3,2-d]pyrimidin-6-yl)methyl)(methyl)amino)-N-hydroxypyrimidine-5-carboxamide]: the melting point was 197 to 200 °C. Further, the IC50 in data set [1] was below 100 nM. Moreover, the 50% inhibitory concentration (IC50) in [2] is 10 to 100 nM. The IC50 in data set [3] is 10 to 100 nM. The same compound displayed an IC50 in data set [4] below 100 nM. For the same compound, the IC50 in [5] is below 100 nM. Further, the IC50 in [6] is below 100 nM. Further, the IC50 in data set [7] (setting [15]) lay in the range of 10 to 100 nM. Moreover, in data set [8], the IC50 was below 100 nM. The IC50 in data set [9] (setting [16]) is below 10 nM. Also, the IC50 in data set [10] was 10 to 100 nM. Also, the IC50 in data set [11] was in the range of 10 to 100 nM. In data set [12], the IC50 was below 10 nM.

`CN(Cc1cc2nc(-c3cc(F)cc4[nH]ncc34)nc(N3CCOCC3)c2s1)c1ncc(C(=O)NO)cn1` [Compound 69, 2-(((2-(6-fluoro-1H-indazol-4-yl)-4-morpholinothieno[3,2-d]pyrimidin-6-yl)methyl)(methyl)amino)-N-hydroxypyrimidine-5-carboxamide] displayed a melting point of 215 to 217 °C. The IC50 in data set [1] was below 100 nM. This compound also yielded an IC50 in data set [4] below 100 nM. In addition, the 50% inhibitory concentration (IC50) in [5] was below 100 nM. The IC50 in data set [6] was below 100 nM. Also, the IC50 in data set [8] is below 100 nM.

As for `CC(c1cc2nc(-c3cccc4[nH]ncc34)nc(N3CCOCC3)c2s1)N(C)c1ncc(C(=O)NO)cn1` (stereo not drawn) [Compound 70], the IC50 is below 100 nM in data set [1]; below 100 nM in data set [4]; below 100 nM in [5]; below 100 nM in [6]; 100 to 1000 nM in data set [7] (SK-MEL-28, Method B); below 100 nM in [8]. In [9] (Breast, Method B), the IC50 is below 10 nM.

Take `O=C(NO)c1ccc(NCc2cc3nc(-c4cccc5[nH]ncc45)nc(N4CCOCC4)c3s2)nc1` [Compound 76, 6-((2-(1H-indazol-4-yl)-4-morpholinothieno[3,2-d]pyrimidin-6-yl)methylamino)-N-hydroxynicotinamide]: the melting point lay in the range of 218 to 220 °C. The IC50 in data set [1] was 100 to 1000 nM. In data set [4], this compound showed an IC50 below 100 nM. The IC50 in [5] fell in the range of 100 to 1000 nM. Further, in data set [6], the 50% inhibitory concentration (IC50) was in the range of 100 to 1000 nM. Further, in [8], the IC50 was 100 to 1000 nM.

`CN(C)c1ncc(-c2nc(N3CCOCC3)c3sc(CN(C)c4ncc(C(=O)NO)cn4)cc3n2)cn1` [Compound 117, 2-(((2-(2-(dimethylamino)pyrimidin-5-yl)-4-morpholinothieno[3,2-d]pyrimidin-6-yl)methyl)(methyl)amino)-N-hydroxypyrimidine-5-carboxamide] returned a melting point of 200 to 206 °C. Besides, the 50% inhibitory concentration (IC50) in data set [1] is below 100 nM. Moreover, the IC50 in data set [4] is below 100 nM. In data set [5], the IC50 is below 100 nM. Also, the IC50 in [6] was below 100 nM. For the same compound, in data set [8], the IC50 was below 100 nM.

`Cc1nc(N)ncc1-c1nc(N2CCOCC2)c2sc(CN(C)c3ncc(C(=O)NO)cn3)cc2n1` [Compound 125, 2-(((2-(2-amino-4-methylpyrimidin-5-yl)-4-morpholinothieno[3,2-d]pyrimidin-6-yl)methyl)(methyl)amino)-N-hydroxypyrimidine-5-carboxamide] displayed a melting point of 195 to 198 °C. In addition, in [1], the IC50 lay within 100 to 1000 nM. In data set [4], this compound yielded an IC50 below 100 nM. The half-inhibitory concentration (IC50) in data set [5] is below 100 nM. For the same compound, in [6], the IC50 was below 100 nM. Also, the IC50 in data set [7] (setting [15]) lay in the range of 100 to 1000 nM. The IC50 in data set [8] lay within 100 to 1000 nM. For the same compound, the IC50 in data set [9] (setting [16]) was 10 to 100 nM. Moreover, the IC50 in data set [10] lay in the range of 100 to 1000 nM.

`CN(Cc1cc2nc(-c3ccc(N)cc3Cl)nc(N3CCOCC3)c2s1)c1ncc(C(=O)NO)cn1` [Compound 284, 2-(((2-(4-Amino-2-chlorophenyl)-4-morpholinothieno[3,2-d]pyrimidin-6-yl)methyl)(methyl)amino)-N-hydroxypyrimidine-5-carboxamide] had a melting point of 179 to 183 °C. Also, the IC50 in data set [13] is below 10 nM. This compound also had an IC50 in data set [4] below 100 nM.

Take `CN(Cc1cc2nc(-c3cccc(OCCO)c3)nc(N3CCOCC3)c2s1)c1ncc(C(=O)NO)cn1` [Compound 289, 2-({2-[3-(2-Hydroxy-ethoxy)-phenyl]-4-morpholin-4-yl-thieno[3,2-d]pyrimidin-6-ylmethyl}-methyl-amino)-pyrimidine-5-carboxylic acid hydroxyamide]: the melting point fell in the range of 148 to 152 °C. In addition, the half-maximal inhibitory concentration (IC50) in data set [13] was below 10 nM. The IC50 in data set [4] is below 100 nM. The IC50 in data set [7] (setting [15]) was below 10 nM.

Turning to `CN(Cc1cc2nc(-c3cc(O)ccc3F)nc(N3CCOCC3)c2s1)c1ncc(C(=O)NO)cn1` [Compound 292, 2-(((2-(2-Fluoro-5-hydroxyphenyl)-4-morpholinothieno[3,2-d]pyrimidin-6-yl)methyl)(methyl)amino)-N-hydroxypyrimidine-5-carboxamide], the melting point lay within 250 to 255 °C. Further, the IC50 in [4] is below 100 nM. Besides, the IC50 in data set [14] was below 10 nM.

Turning to `CC(O)c1cccc(-c2nc(N3CCOCC3)c3sc(CN(C)c4ncc(C(=O)NO)cn4)cc3n2)c1` (stereo not drawn) [Compound 294, N-Hydroxy-2-(((2-(3-(1-hydroxyethyl)phenyl)-4-morpholinothieno[3,2-d]pyrimidin-6-yl)methyl)(methyl)amino)pyrimidine-5-carboxamide], the figures for the IC50 in data set [13], in data set [4] and in data set [7] (setting [15]) were below 10 nM, below 100 nM and below 10 nM, respectively.

Turning to `C[C@H](O)c1cccc(-c2nc(N3CCOCC3)c3sc(CN(C)c4ncc(C(=O)NO)cn4)cc3n2)c1` [Compound 296, (S)—N-Hydroxy-2-(((2-(3-(1-hydroxyethyl)phenyl)-4-morpholinothieno[3,2-d]pyrimidin-6-yl)methyl)(methyl)amino)pyrimidine-5-carboxamide], the melting point fell in the range of 168 to 172 °C. In data set [13], the IC50 was below 10 nM. The compound also yielded an IC50 in data set [4] below 100 nM.

Regarding `CNc1ccc(-c2nc(N3CCOCC3)c3sc(C(=O)NCC4CCN(c5ncc(C(=O)NO)cn5)CC4)cc3n2)cn1` [Compound 308, N-((1-(5-(Hydroxycarbamoyl)pyrimidin-2-yl)piperidin-4-yl)methyl)-2-(6-(methylamino)pyridin-3-yl)-4-morpholinothieno[3,2-d]pyrimidine-6-carboxamide], the melting point was in the range of 215 to 218 °C. Also, the IC50 in data set [13] is 100 to 1000 nM. Further, the IC50 in data set [4] was below 100 nM.

Source of the values: US8906909B2 (Curis, Inc., priority 2009, dated 2014).
